Data set [1] deals with P. falciparum 3D7 parasites. As to the kind of experiment: P. falciparum growth inhibition assay, 1-cycle (72 h treatment), SYBR DNA staining (library screen at 2 μg/mL and dose-response). The data set is classed as cell-based, Plasmodium falciparum. The note with it: for activity in the screen against P. falciparum: 2 μg/mL, active = ≥80 % growth inhibition; for Screen (P. falciparum): 3D7, 72 h, DD from the 120 h timepoint.

Data set [2] concerns P. falciparum 3D7 parasites. As to the kind of experiment: P. falciparum growth inhibition assay, 2-cycle (120 h treatment), delayed-death screen and dose-response. The data set is classed as cell-based, Plasmodium falciparum. The note with it: for IC50: 3D7, read-out: IC50, P. falciparum, 120 h dose-response (delayed-death).
The test system of data set [3] is T. gondii RH strain (RH-Tub-eYFP) tachyzoites. As to the kind of experiment: microbe, parasite or virus in culture. The data set is classed as cell-based, Toxoplasma gondii. The note with it: 72 h; for activity in the screen against T. gondii: 2 μg/mL, active = ≥80 % growth inhibition.
The subject of data set [4] is human neonatal foreskin fibroblast (NFF). As to the kind of experiment: Cytotoxicity screen at 5 μg/mL, resazurin dye assay, 96 h.
Another data set deals with Leishmania. The note with it: ref Filho et al., 2024; cited from earlier work.
A further data set has as its system P. falciparum. The note with it: ref Wilson et al., 2013, cited from earlier work.
The mark [5] stands for this setting: Plasmodium falciparum, 3D7, 72 h treatment, mean ± S.D., n ≥ 3, read-out: IC50 (μM), P. falciparum.
Where [6] appears, read: Toxoplasma gondii, RH strain, mean ± S.D., n ≥ 3, read-out: IC50 (μM), T. gondii (converted).
Where [7] appears, read: Plasmodium falciparum, 3D7; P. falciparum, 2 μg/mL, 72 h; read-out: 1) Growth (%) at 72 h.
The mark [8] stands for this setting: Plasmodium falciparum, 3D7; P. falciparum, 2 μg/mL, 120 h; read-out: 2) Growth (%) at 120 h.
Where [9] appears, read: fibroblasts over T. gondii, for cryptopleurine the parasite is not stated.

Like-named read-outs stand apart in the source and are kept apart here.

`C=C[C@]1(C)C[C@@H](OC(=O)CS[C@@H]2C[C@H]3CC[C@@H](C2)N3C)[C@]2(C)[C@H](C)CC[C@]3(CCC(=O)[C@H]32)[C@@H](C)[C@@H]1O` [Retapamulin, reference compound]: the “activity in the screen against P. falciparum” value in data set [1] (72 h) was “active against both P. falciparum and T. gondii”. Besides, the activity at 2 µg/mL in data set [1] (Plasmodium falciparum, 3D7, P. falciparum, 72 h, parasite screen 2 μg/mL, % growth, replicate 1, read-out: Pf_72h_%Growth_Rep1) is 8.14%; in data set [1] (Plasmodium falciparum, 3D7, P. falciparum, 72 h, parasite screen 2 μg/mL, % growth, replicate 2, read-out: Pf_72h_%Growth_Rep2) it was 8.89%; in data set [2] (Plasmodium falciparum, 3D7, P. falciparum, 120 h, parasite screen 2 μg/mL, % growth, replicate 1, read-out: Pf_120h_%Growth_Rep1), -0.64%; in data set [2] (Plasmodium falciparum, 3D7, P. falciparum, 120 h, parasite screen 2 μg/mL, % growth, replicate 2, read-out: Pf_120h_%Growth_Rep2), 3.58%. Besides, the IC50 in data set [1] (setting [5]) was over 1 µM; in data set [2] (Plasmodium falciparum) it was 106 nM; in data set [3] (setting [6]) it was 0.085 µM. Besides, the “Screen (P. falciparum)” value in data set [1] (library screen at 2 μg/mL) is “A, A”. Moreover, the “activity in the screen against T. gondii” value in data set [3] is “active against both P. falciparum and T. gondii”. The percent parasite growth at 2 µg/mL in data set [3] (Toxoplasma gondii, T. gondii, parasite screen 2 μg/mL, % growth, replicate 1, read-out: Tg_72h_%Growth_Rep1) worked out at 2.49%; in data set [3] (Toxoplasma gondii, T. gondii, parasite screen 2 μg/mL, % growth, replicate 2, read-out: Tg_72h_%Growth_Rep2), 9.45%. In data set [3] (library screen at 2 μg/mL, RH strain), the “Screen (T. gondii)” value is recorded as “A, A”. Also, the selectivity index entry in the data set with HFF cells is reported as “greater than 100”.

`CC(/C=C/C[C@@H](C)/C=C(C)/C=C/[C@@H]1OC(=O)C=C[C@@H]1C)=C\[C@@H](C)C(=O)[C@@H](C)[C@H](O)[C@@H](C)C/C(C)=C/C(=O)O` [leptomycin A]: in data set [4], the “cytotoxic activity in the screen against fibroblasts” value is listed as “cytotoxic activity”.

Turning to Beauvericin, the IC50 amounted to 0.499 ± 0.029 µM in data set [1] (3D7, 72 h treatment, mean ± S.D., n ≥ 3, read-out: IC50 (μM), P. falciparum) and 0.5 µM in data set [1] (72 h treatment, read-out: IC50, P. falciparum). Moreover, the Pf_72h_%Growth_Rep1 in data set [1] (library screen at 2 μg/mL, 72 h, % growth, replicate 1) came out at 7.31%. The compound further returned a Pf_72h_%Growth_Rep2 in data set [1] (library screen at 2 μg/mL, 72 h, % growth, replicate 2) of 5.24%. The same compound showed a Pf_120h_%Growth_Rep1 in data set [2] (library screen at 2 μg/mL, 120 h, % growth, replicate 1) of 4.73%. In data set [2] (library screen at 2 μg/mL, 120 h, % growth, replicate 2), the Pf_120h_%Growth_Rep2 is given as 5.37%. Moreover, the Tg_72h_%Growth_Rep1 in data set [3] (library screen at 2 μg/mL, % growth, replicate 1) is listed as 86.72%. Besides, the Tg_72h_%Growth_Rep2 in data set [3] (library screen at 2 μg/mL, % growth, replicate 2) was 89.12%. In addition, the “reported activity in Leishmania” value in the data set on Leishmania is “around 1 μM”.

Turning to `C=C[C@]1(C)C[C@@H](OC(=O)CSC(C)(C)CNC(=O)[C@H](N)C(C)C)[C@]2(C)[C@H](C)CC[C@]3(CCC(=O)[C@H]32)[C@@H](C)[C@@H]1O` [Valnemulin, reference compound], the activity at 2 µg/mL in data set [1] (setting [7]) was found to be 50.1%; in data set [1] (Plasmodium falciparum, 3D7, P. falciparum, 72 h, screen at 2 μg/mL, replicate 1, read-out: Pf_72h_%Growth_Rep1), 44.3%; in data set [1] (Plasmodium falciparum, 3D7, P. falciparum, 72 h, screen at 2 μg/mL, replicate 2, read-out: Pf_72h_%Growth_Rep2), 55.9%; in data set [2] (setting [8]), 13.4%; in data set [2] (Plasmodium falciparum, 3D7, P. falciparum, 120 h, screen at 2 μg/mL, replicate 1, read-out: Pf_120h_%Growth_Rep1), 15%; in data set [2] (Plasmodium falciparum, 3D7, P. falciparum, 120 h, screen at 2 μg/mL, replicate 2, read-out: Pf_120h_%Growth_Rep2), 11.8%. Further, the IC50 in data set [1] (setting [5]) is over 1 µM; in data set [2] (Plasmodium falciparum), 64 nM; in data set [3] (setting [6]), 0.232 µM. Further, the “Screen (P. falciparum)” value in data set [1] (library screen at 2 μg/mL) is “DD^”. Further, the “delayed-death activity in the 120 h screen against P. falciparum” value in data set [2] (2 μg/mL, criteria: ≥40 % growth at 72 h, ≤20 % growth at 120 h, at least 5-fold) was “meeting two of our three criteria for delayed-death activity”. Moreover, the “3) Fold change (72 h/120 h)” value in data set [2] (P. falciparum, growth at 72 h / growth at 120 h, 2 μg/mL) amounted to 3.7. The “activity in the screen against T. gondii” value in data set [3] was “active against T. gondii”. The percent parasite growth at 2 µg/mL in data set [3] (Toxoplasma gondii, T. gondii, screen at 2 μg/mL, replicate 1, read-out: Tg_72h_%Growth_Rep1) worked out at 13.1%; in data set [3] (Toxoplasma gondii, T. gondii, screen at 2 μg/mL, replicate 2, read-out: Tg_72h_%Growth_Rep2) it was 19.6%. The selectivity index entry with HFF cells (setting [9]) is recorded as “greater than 100”.

With `C[C@H]1c2cccc(O)c2C(=O)C2=C(O)[C@]3(O)C(=O)C(C(N)=O)=C(O)[C@@H](N(C)C)[C@@H]3[C@@H](O)[C@@H]21` [Doxycycline, reference compound], the activity at 2 µg/mL in data set [1] (setting [7]) came to 48.6%; in data set [1] (Plasmodium falciparum, 3D7, library screen at 2 μg/mL, 72 h, % growth, replicate 1, read-out: Pf_72h_%Growth_Rep1) it was 55.3%; in data set [1] (Plasmodium falciparum, 3D7, library screen at 2 μg/mL, 72 h, % growth, replicate 2, read-out: Pf_72h_%Growth_Rep2) it was 41.9%; in data set [2] (setting [8]) it was 7.68%; in data set [2] (Plasmodium falciparum, 3D7, library screen at 2 μg/mL, 120 h, % growth, replicate 1, read-out: Pf_120h_%Growth_Rep1), 8.86%; in data set [2] (Plasmodium falciparum, 3D7, library screen at 2 μg/mL, 120 h, % growth, replicate 2, read-out: Pf_120h_%Growth_Rep2) it was 6.5%. The “3) Fold change (72 h/120 h)” value in data set [2] is given as 6.3. For the same compound, the percent parasite growth at 2 µg/mL amounted to 41% in data set [3] (Toxoplasma gondii, library screen at 2 μg/mL, % growth, replicate 1, read-out: Tg_72h_%Growth_Rep1) and 47.5% in data set [3] (Toxoplasma gondii, library screen at 2 μg/mL, % growth, replicate 2, read-out: Tg_72h_%Growth_Rep2). Further, the concentration for half-maximal inhibition (IC50) with P. falciparum (48–72 h, read-out: IC50 at 48–72 h) is at least 5000 nM. Besides, the “IC50 at more than 96 h” value in the data set with P. falciparum (more than 96 h) is reported as “low nanomolar range”.

Pladienolide B: the “activity in the screen against P. falciparum” value in data set [1] (72 h) was “active against T. gondii but not P. falciparum”. For the same compound, in data set [3], the “activity in the screen against T. gondii” value is reported as “active against T. gondii but not P. falciparum”. For the same compound, the IC50 was found to be 0.0067 ± 0.0044 µM in data set [3] (read-out: IC50, T. gondii) and 47 nM in the data set on HFF cells (read-out: IC50, cytotoxicity against human fibroblasts, HFF, 72 h). In the data set with HFF cells (setting [9]), this compound registered a selectivity index of 7.

Values taken from publication PMC12396409, “Screening and hit evaluation of a microbial metabolite library against the pathogenic Plasmodium falciparum and Toxoplasma gondii parasites” (International Journal for Parasitology: Drugs and Drug …, 2025).
